From the NIST ThermoML archive (doi:10.1021/je900916e)
Numbers after ± are expanded uncertainties.

Test: cn = amount concentration of the nth substance listed, in mol/dm3
Conditions: 101 kPa, Liquid, Advanced Conductivity Orion 162A

CC[N+](CC)(CC)CC.O=C([O-])C(F)(F)C(F)(F)C(F)(F)C(F)(F)C(F)(F)C(F)(F)C(F)(F)F [tetraethylammonium perfluorooctanoate] + O
Conditions	electrical conductivity [S/m]
288.15 K, c1 = 0.000744	0.00332 ± 7e-05
288.15 K, c1 = 0.001478	0.00651 ± 0.00013
288.15 K, c1 = 0.0022	0.0094 ± 0.00019
288.15 K, c1 = 0.002913	0.0122 ± 0.00024
288.15 K, c1 = 0.003614	0.015 ± 0.0003
288.15 K, c1 = 0.004306	0.0176 ± 0.00035
288.15 K, c1 = 0.005101	0.0205 ± 0.00041
288.15 K, c1 = 0.005882	0.0233 ± 0.00047
288.15 K, c1 = 0.006651	0.0258 ± 0.00052
288.15 K, c1 = 0.007407	0.0275 ± 0.00055
288.15 K, c1 = 0.008152	0.0283 ± 0.00057
288.15 K, c1 = 0.009091	0.0292 ± 0.00058
288.15 K, c1 = 0.01011	0.0301 ± 0.0006
288.15 K, c1 = 0.01131	0.0311 ± 0.00062
288.15 K, c1 = 0.01266	0.0322 ± 0.00064
288.15 K, c1 = 0.01398	0.0332 ± 0.00066
288.15 K, c1 = 0.01543	0.0343 ± 0.00069
293.15 K, c1 = 0.000662	0.00339 ± 7e-05
293.15 K, c1 = 0.001316	0.00649 ± 0.00013
293.15 K, c1 = 0.001961	0.00944 ± 0.00019
293.15 K, c1 = 0.002597	0.0123 ± 0.00025
293.15 K, c1 = 0.003226	0.0149 ± 0.0003
293.15 K, c1 = 0.003846	0.0176 ± 0.00035
293.15 K, c1 = 0.004458	0.0201 ± 0.0004
293.15 K, c1 = 0.005063	0.0226 ± 0.00045
293.15 K, c1 = 0.00566	0.0249 ± 0.0005
293.15 K, c1 = 0.00625	0.027 ± 0.00054
293.15 K, c1 = 0.006832	0.029 ± 0.00058
293.15 K, c1 = 0.007407	0.0301 ± 0.0006
293.15 K, c1 = 0.007975	0.0309 ± 0.00062
293.15 K, c1 = 0.008536	0.0316 ± 0.00063
293.15 K, c1 = 0.00942	0.0325 ± 0.00065
293.15 K, c1 = 0.01029	0.0334 ± 0.00067
293.15 K, c1 = 0.01114	0.0342 ± 0.00068
293.15 K, c1 = 0.01218	0.0351 ± 0.0007
293.15 K, c1 = 0.01319	0.036 ± 0.00072
293.15 K, c1 = 0.01419	0.0369 ± 0.00074
293.15 K, c1 = 0.01516	0.0378 ± 0.00076
298.15 K, c1 = 0.000662	0.00389 ± 8e-05
298.15 K, c1 = 0.001316	0.00743 ± 0.00015
298.15 K, c1 = 0.001961	0.0108 ± 0.00022
298.15 K, c1 = 0.002597	0.0141 ± 0.00028
298.15 K, c1 = 0.003226	0.0172 ± 0.00034
298.15 K, c1 = 0.003846	0.0202 ± 0.0004
298.15 K, c1 = 0.004458	0.0231 ± 0.00046
298.15 K, c1 = 0.005063	0.0259 ± 0.00052
298.15 K, c1 = 0.00566	0.0286 ± 0.00057
298.15 K, c1 = 0.00625	0.0313 ± 0.00063
298.15 K, c1 = 0.006832	0.0329 ± 0.00066
298.15 K, c1 = 0.007407	0.0339 ± 0.00068
298.15 K, c1 = 0.007975	0.0348 ± 0.0007
298.15 K, c1 = 0.008536	0.0356 ± 0.00071
298.15 K, c1 = 0.00942	0.0366 ± 0.00073
298.15 K, c1 = 0.01029	0.0376 ± 0.00075
298.15 K, c1 = 0.01114	0.0386 ± 0.00077
298.15 K, c1 = 0.01218	0.0397 ± 0.00079
298.15 K, c1 = 0.01319	0.0409 ± 0.00082
298.15 K, c1 = 0.01419	0.042 ± 0.00084
298.15 K, c1 = 0.01516	0.0431 ± 0.00086
303.15 K, c1 = 0.000662	0.00431 ± 9e-05
303.15 K, c1 = 0.001316	0.00815 ± 0.00016
303.15 K, c1 = 0.001961	0.0119 ± 0.00024
303.15 K, c1 = 0.002597	0.0154 ± 0.00031
303.15 K, c1 = 0.003226	0.0189 ± 0.00038
303.15 K, c1 = 0.003846	0.0222 ± 0.00044
303.15 K, c1 = 0.004458	0.0254 ± 0.00051
303.15 K, c1 = 0.005063	0.0285 ± 0.00057
303.15 K, c1 = 0.00566	0.0314 ± 0.00063
303.15 K, c1 = 0.00625	0.0344 ± 0.00069
303.15 K, c1 = 0.006832	0.0365 ± 0.00073
303.15 K, c1 = 0.007407	0.038 ± 0.00076
303.15 K, c1 = 0.007975	0.0389 ± 0.00078
303.15 K, c1 = 0.008536	0.0398 ± 0.0008
303.15 K, c1 = 0.00942	0.0409 ± 0.00082
303.15 K, c1 = 0.01029	0.042 ± 0.00084
303.15 K, c1 = 0.01114	0.0431 ± 0.00086
303.15 K, c1 = 0.01218	0.0444 ± 0.00089
303.15 K, c1 = 0.01319	0.0457 ± 0.00091
303.15 K, c1 = 0.01419	0.047 ± 0.00094
303.15 K, c1 = 0.01516	0.0483 ± 0.00097
308.15 K, c1 = 0.000744	0.00544 ± 0.00011
308.15 K, c1 = 0.001478	0.0102 ± 0.0002
308.15 K, c1 = 0.0022	0.0148 ± 0.0003
308.15 K, c1 = 0.002913	0.0193 ± 0.00039
308.15 K, c1 = 0.003614	0.0234 ± 0.00047
308.15 K, c1 = 0.004306	0.0275 ± 0.00055
308.15 K, c1 = 0.004988	0.0316 ± 0.00063
308.15 K, c1 = 0.00566	0.0354 ± 0.00071
308.15 K, c1 = 0.006323	0.0391 ± 0.00078
308.15 K, c1 = 0.006977	0.0419 ± 0.00084
308.15 K, c1 = 0.007621	0.0433 ± 0.00087
308.15 K, c1 = 0.008467	0.0448 ± 0.0009
308.15 K, c1 = 0.009297	0.0462 ± 0.00092
308.15 K, c1 = 0.01011	0.0475 ± 0.00095
308.15 K, c1 = 0.01111	0.049 ± 0.00098
308.15 K, c1 = 0.01228	0.0508 ± 0.001
308.15 K, c1 = 0.01361	0.0527 ± 0.001
308.15 K, c1 = 0.01489	0.0545 ± 0.0011
308.15 K, c1 = 0.01632	0.0565 ± 0.0011
313.15 K, c1 = 0.000662	0.00523 ± 0.0001
313.15 K, c1 = 0.001316	0.0101 ± 0.0002
313.15 K, c1 = 0.001961	0.0146 ± 0.00029
313.15 K, c1 = 0.002597	0.0189 ± 0.00038
313.15 K, c1 = 0.003226	0.0231 ± 0.00046
313.15 K, c1 = 0.003846	0.0272 ± 0.00054
313.15 K, c1 = 0.004458	0.0312 ± 0.00062
313.15 K, c1 = 0.005063	0.0351 ± 0.0007
313.15 K, c1 = 0.00566	0.0388 ± 0.00078
313.15 K, c1 = 0.00625	0.0422 ± 0.00084
313.15 K, c1 = 0.006832	0.0455 ± 0.00091
313.15 K, c1 = 0.007407	0.047 ± 0.00094
313.15 K, c1 = 0.007975	0.0482 ± 0.00096
313.15 K, c1 = 0.008536	0.0493 ± 0.00099
313.15 K, c1 = 0.00942	0.0508 ± 0.001
313.15 K, c1 = 0.01029	0.0523 ± 0.001
313.15 K, c1 = 0.01114	0.0537 ± 0.0011
313.15 K, c1 = 0.01218	0.0554 ± 0.0011
313.15 K, c1 = 0.01319	0.0571 ± 0.0011
313.15 K, c1 = 0.01419	0.0587 ± 0.0012
313.15 K, c1 = 0.01516	0.0603 ± 0.0012
318.15 K, c1 = 0.000744	0.00628 ± 0.00013
318.15 K, c1 = 0.001478	0.0121 ± 0.00024
318.15 K, c1 = 0.0022	0.0177 ± 0.00035
318.15 K, c1 = 0.002913	0.023 ± 0.00046
318.15 K, c1 = 0.003614	0.028 ± 0.00056
318.15 K, c1 = 0.004306	0.033 ± 0.00066
318.15 K, c1 = 0.004988	0.0379 ± 0.00076
318.15 K, c1 = 0.00566	0.0424 ± 0.00085
318.15 K, c1 = 0.006323	0.0468 ± 0.00094
318.15 K, c1 = 0.006977	0.0504 ± 0.001
318.15 K, c1 = 0.007621	0.0534 ± 0.0011
318.15 K, c1 = 0.008257	0.0548 ± 0.0011
318.15 K, c1 = 0.009091	0.0566 ± 0.0011
318.15 K, c1 = 0.00991	0.0583 ± 0.0012
318.15 K, c1 = 0.01091	0.0602 ± 0.0012
318.15 K, c1 = 0.01209	0.0624 ± 0.0013
318.15 K, c1 = 0.01342	0.0646 ± 0.0013
318.15 K, c1 = 0.01471	0.0667 ± 0.0013
318.15 K, c1 = 0.01614	0.0692 ± 0.0014
